Results reported in US7186831B2, “5-halo-2-alkyl[1,2,4]triazolo[1,5-a]pyrimidin-7-amines” (priority 2001, dated 2007).

Experiment: log P by HPLC
Format: physicochemical
Conditions: EEC directive 79/831 Annex V. A8 by HPLC (gradient method, acetonitrile/0.1% aqueous phosphoric acid)

| SMILES | logP |
| --- | --- |
| Cc1nc2nc(Cl)c(-c3ccc(F)cc3F)c(N(C)CC#N)n2n1 [compound 412] | 2.34 |
| COC(=O)C1CCN(c2c(-c3ccc(F)cc3F)c(Cl)nc3nc(C)nn23)CC1 [compound 292] | 2.78 |
| Cc1nc2nc(Cl)c(-c3c(F)cccc3F)c(N3CCC(N(C)C)C3)n2n1 (stereo not shown) [compound 306] | 1.18 |
| Cc1nc2nc(Cl)c(-c3c(F)cc(F)cc3F)c(NC(C)C(C)C)n2n1 (stereo not shown) [compound 506] | 3.35 |
| Cc1nc2nc(Cl)c(-c3c(F)cccc3F)c(N3CCN(C)CC3)n2n1 [compound 324] | 1.12 |
| CC(C)CN(C)c1c(-c2c(F)cc(F)cc2F)c(Cl)nc2nc(C3CC3)nn12 [compound 467] | 4.36 |
| CCOC(=O)CN(CC)c1c(-c2c(F)cccc2Cl)c(Cl)nc2nc(C)nn12 [compound 270] | 3.14 |
| Cc1nc2nc(Cl)c(-c3c(F)cccc3F)c(Nc3ccc(F)cc3)n2n1 [compound 445] | 2.71 |
| Fc1cccc(Cl)c1-c1c(Cl)nc2nc(C3CC3)nn2c1NC1CCCC1 [compound 479] | 3.83 |
| Cc1nc2nc(Cl)c(-c3ccccc3Cl)c(NCC#N)n2n1 [compound 403] | 2.03 |
| CCC1=CCN(c2c(-c3ccc(F)cc3F)c(Cl)nc3nc(C4CC4)nn23)CC1 [compound 511] | 4.59 |
| Cc1nc2nc(Cl)c(-c3ccc(F)cc3F)c(N3CCCCC3)n2n1 [compound 295] | 3.32 |
| Cc1nc2nc(Cl)c(-c3c(F)cccc3F)c(NOCc3ccccc3)n2n1 [compound 427] | 2.93 |
| CCC1=CCN(c2c(-c3c(F)cccc3F)c(Cl)nc3nc(C)nn23)CC1 [compound 316] | 3.84 |
| Cc1nc2nc(F)c(-c3ccccc3Cl)c(NC(C)C(F)(F)F)n2n1 (stereo not shown) [compound 438] | 2.97 |
| Cc1nc2nc(Cl)c(-c3c(F)cccc3Cl)c(NCC(F)(F)F)n2n1 [compound 260] | 2.77 |
| Cc1nc2nc(Cl)c(-c3c(F)cccc3F)c(N3CCC4(CC3)OCCO4)n2n1 [compound 309] | 2.6 |
| C=CCN(C)c1c(-c2c(F)cccc2Cl)c(Cl)nc2nc(C)nn12 [compound 273] | 3.26 |
| Cc1ccc(Nc2c(-c3c(F)cccc3F)c(Cl)nc3nc(C)nn23)cc1 [compound 444] | 3.01 |
| Cc1nc2nc(Cl)c(-c3ccccc3F)c(NOCc3ccccc3Cl)n2n1 [compound 366] | 3.21 |
| C=C(C)CN(C)c1c(-c2c(F)cccc2F)c(Cl)nc2nc(C)nn12 [compound 337] | 3.3 |
| Cc1nc2nc(Cl)c(-c3c(F)cccc3F)c(N3CCC(N)C3)n2n1 (stereo not shown) [compound 441] | 1.19 |
| CCN(CCOC)c1c(-c2c(F)cccc2Cl)c(Cl)nc2nc(C)nn12 [compound 269] | 3.03 |
| C=C(C)CNc1c(-c2c(F)cc(F)cc2F)c(Cl)nc2nc(C3CC3)nn12 [compound 466] | 3.34 |

Same assay, conditions: HPLC

| SMILES | chromatographic logP |
| --- | --- |
| Fc1cc(F)c(-c2c(Cl)nc3nc(C(F)(F)F)nn3c2Cl)c(F)c1 [Example 819, 5,7-dichloro-2-(trifluoromethyl)-6-(2,4,6-trifluorophenyl)[1,2,4]triazolo[1,5-a]pyrimidine] | 3.71 |

Same assay, conditions: HPLC, gradient method, acetonitrile/0.1% aqueous phosphoric acid; EEC directive 79/831 Annex V. A8

| SMILES | logP |
| --- | --- |
| CC1CCN(c2c(-c3c(F)cccc3F)c(Cl)nc3nc(C4CC4)nn23)CC1 [compound 681] | 4.34 |
| Fc1ccc(-c2c(Cl)nc3nc(C(F)(F)F)nn3c2NC2CC2)c(F)c1 [compound 531] | 3.49 |
| Fc1ccc(-c2c(Cl)nc3nc(C4CC4)nn3c2NC2CC2)c(F)c1 [compound 655] | 2.95 |
| CCCCNc1c(-c2ccc(F)cc2F)c(Cl)nc2nc(C)nn12 [compound 192] | 3.04 |
| Cc1nc2nc(Cl)c(-c3ccc(F)cc3F)c(NCC(C)(C)C)n2n1 [compound 193] | 3.4 |
| Cc1nc2nc(Cl)c(-c3c(F)cccc3F)c(NC3CCCC3)n2n1 [compound 173] | 2.97 |
| Fc1ccc(-c2c(Cl)nc3nc(C4CC4)nn3c2NC2CCCCC2C(F)(F)F)c(F)c1 (stereo not shown) [compound 715] | 4.08 |
| Fc1ccc(-c2c(Cl)nc3nc(C(F)(F)F)nn3c2NC2CCCCC2)c(F)c1 [compound 556] | 4.47 |
| CC1CCCCN1c1c(-c2c(F)cccc2F)c(Cl)nc2nc(C3CC3)nn12 (stereo not shown) [compound 680] | 3.17 |
| CN(CC1OCCO1)c1c(-c2ccc(F)cc2F)c(Cl)nc2nc(C3CC3)nn12 [compound 663] | 3.1 |
| CCNc1c(-c2ccc(F)cc2F)c(Cl)nc2nc(C)nn12 [compound 687] | 3.08 |
| CC(C)CN(C)c1c(-c2ccc(F)cc2Cl)c(Cl)nc2nc(C3CC3)nn12 [compound 627] | 4.51 |
| Cc1nc2nc(Cl)c(-c3c(F)cc(F)cc3F)c(N3CCC(F)CC3)n2n1 [compound 167] | 3.03 |
| C=C(C)CNc1c(-c2ccc(F)cc2Cl)c(Cl)nc2nc(C3CC3)nn12 [compound 626] | 3.59 |
| Fc1ccc(-c2c(Cl)nc3nc(C4CC4)nn3c2N2CCCC2C(F)(F)F)c(F)c1 (stereo not shown) [compound 729] | 4.14 |
| CN(C)Nc1c(-c2ccc(F)cc2Cl)c(Cl)nc2nc(C3CC3)nn12 [compound 619] | 3.29 |
| C=CCN(CC)c1c(-c2ccc(F)cc2F)c(Cl)nc2nc(C(F)(F)F)nn12 [compound 548] | 4.4 |
| Cc1nc2nc(Cl)c(-c3ccc(F)cc3F)c(NC3CC3)n2n1 [compound 199] | 2.45 |
| Cc1nc2nc(Cl)c(-c3c(F)cc(F)cc3F)c(N3CCSCC3)n2n1 [compound 66] | 3.09 |

| SMILES | logP |
| --- | --- |
| C=CCN(C)c1c(-c2ccc(F)cc2F)c(Cl)nc2nc(C)nn12 [compound 203] | 3.06 |
| Cc1nc2nc(Cl)c(-c3c(F)cc(F)cc3F)c(NCC(C)C)n2n1 [compound 145] | 3.14 |
| Fc1ccc(-c2c(Cl)nc3nc(C(F)(F)F)nn3c2NCCC(F)(F)F)c(F)c1 [compound 529] | 3.7 |
| CC(C)C(C)Nc1c(-c2ccc(Cl)cc2Cl)c(Cl)nc2nc(C3CC3)nn12 (single isomer, unassigned) [compound 757] | 4.72 |
| Fc1ccc(-c2c(Cl)nc3nc(C4CC4)nn3c2N2CC=CCC2)c(F)c1 [compound 608] | 3.72 |
| Cc1nc2nc(Cl)c(-c3c(F)cccc3Cl)c(NC(C)C(F)(F)F)n2n1 (stereo not shown) [compound 132] | 3.01 |
| Cc1nc2nc(Cl)c(-c3ccc(F)cc3F)c(N3CCCCO3)n2n1 [compound 576] | 2.95 |
| CCOC(=O)CN(CC)c1c(-c2ccc(F)cc2F)c(Cl)nc2nc(C(F)(F)F)nn12 [compound 551] | 4.05 |
| Cc1nc2nc(Cl)c(-c3ccc(Cl)cc3Cl)c(N3OC4CCC3C4)n2n1 (stereo not shown) [compound 780] | 3.41 |
| Cc1cccc(Nc2c(-c3ccc(F)cc3F)c(Cl)nc3nc(C(F)(F)F)nn23)c1 [compound 812] | 4.04 |
| COCC(C)Nc1c(-c2c(F)cc(F)cc2F)c(Cl)nc2nc(C)nn12 (stereo not shown) [compound 116] | 2.64 |
| Fc1ccc(-c2c(Cl)nc3nc(C(F)(F)F)nn3c2NC2CCCC2)c(F)c1 [compound 530] | 4.21 |
| C#CCN(C)c1c(-c2ccccc2Cl)c(Cl)nc2nc(C)nn12 [compound 237] | 2.75 |
| CCN(Cc1ccco1)c1c(-c2ccc(F)cc2F)c(Cl)nc2nc(C(F)(F)F)nn12 [compound 549] | 4.42 |
| CCCN(CC1CCCO1)c1c(-c2ccccc2Cl)c(Cl)nc2nc(C)nn12 (stereo not shown) [compound 244] | 3.7 |
| Fc1cc(F)c(-c2c(Cl)nc3nc(C(F)(F)F)nn3c2N2CCCCC2)c(F)c1 [compound 104] | 4.46 |
| CNc1c(-c2c(F)cc(F)cc2F)c(Cl)nc2nc(C)nn12 [compound 90] | 2.12 |
| Fc1cccc(F)c1-c1c(Cl)nc2nc(C3CC3)nn2c1NC1CCCC1 [compound 740] | 3.66 |
| COC(=O)C(C)Nc1c(-c2c(F)cc(F)cc2F)c(Cl)nc2nc(C)nn12 (stereo not shown) [compound 124] | 2.45 |

| SMILES | logP |
| --- | --- |
| Cc1nc2nc(Cl)c(-c3ccccc3Cl)c(N3CCCCC3)n2n1 [compound 233] | 3.48 |
| CC(C)CN(N)c1c(-c2c(F)cccc2F)c(Cl)nc2nc(C3CC3)nn12 [compound 754] | 3.47 |
| Cc1nc2nc(Cl)c(-c3ccc(Cl)cc3Cl)c(NC(C)C(C)C)n2n1 (stereo not shown) [compound 788] | 4.06 |
| C=C(C)CN(CC)c1c(-c2c(F)cc(F)cc2F)c(Cl)nc2nc(C)nn12 [compound 14] | 3.83 |
| CC(C)CC(C)Nc1c(-c2ccc(F)cc2F)c(Cl)nc2nc(C3CC3)nn12 (stereo not shown) [compound 660] | 4.24 |
| Cc1nc2nc(Cl)c(-c3ccccc3Cl)c(NCC3CC3)n2n1 [compound 216] | 2.85 |
| CN(C)CCN(C)c1c(-c2ccc(F)cc2F)c(Cl)nc2nc(C3CC3)nn12 [compound 661] | 1.56 |
| CCOC(=O)CN(CC)c1c(-c2ccccc2Cl)c(Cl)nc2nc(C)nn12 [compound 240] | 3.11 |
| C=C(C)CN(CC)c1c(-c2ccc(Cl)cc2Cl)c(Cl)nc2nc(C)nn12 [compound 783] | 4.56 |
| Cc1nc2nc(Cl)c(-c3ccc(F)cc3F)c(NCCC(F)(F)F)n2n1 [compound 195] | 2.76 |
| CCC(C)Nc1c(-c2c(F)cc(F)cc2F)c(Cl)nc2nc(C)nn12 (stereo not shown) [compound 147] | 3.1 |
| CC1CCN(c2c(-c3ccc(F)cc3F)c(Cl)nc3nc(C(F)(F)F)nn23)CC1 [compound 798] | 4.8 |
| CCC1=CCN(c2c(-c3ccc(F)cc3F)c(Cl)nc3nc(C(F)(F)F)nn23)CC1 [compound 801] | 4.95 |
| Cc1nc2nc(Cl)c(-c3c(F)cccc3Cl)c(N3CCOCC3)n2n1 [compound 246] | 2.48 |
| C=CCN(C)c1c(-c2ccccc2Cl)c(Cl)nc2nc(C)nn12 [compound 220] | 3.19 |
| Cc1nc2nc(Cl)c(-c3c(F)cc(F)cc3F)c(N3OCCCC3C)n2n1 (stereo not shown) [compound 686] | 3.42 |
| C=C(C)CN(CC)c1c(-c2c(F)cc(F)cc2F)c(Cl)nc2nc(CC)nn12 [compound 15] | 4.34 |
| COC(=O)C(CO)Nc1c(-c2c(F)cc(F)cc2F)c(Cl)nc2nc(C)nn12 (stereo not shown) [compound 115] | 1.93 |
| Cc1nc2nc(Cl)c(-c3ccc(Cl)cc3Cl)c(NCC(C)C)n2n1 [compound 789] | 3.68 |
